Where a name gives a salt, the structure may show the parent alone. One block for each compound: values may come before it.
How the values were obtained:
CEM/C19 cells = test: DUP-785 toxicity and uridine rescue in CEM/C19 cells; assay type: cell-based, human
[1] = target: T1, hENT2 (ei transporter) in CEM/N1-7 cells (Homo sapiens, UniProt Q14542); test: 3H-uridine uptake in CEM/N1-7 cells in the presence of nucleoside transport inhibitors; assay type: cell-based; conditions: for effect on uridine transport in CEM/N1-7 cells: FIG. 1B
T1 construct: expressed in transfected cells; host or cells: CEM/C19 (nucleoside-transport-deficient, EBNA-1-expressing subline of human T-cell leukemia CEM) carrying plasmid pDR2/N1-7
T1 sequence (Q14542 1-456): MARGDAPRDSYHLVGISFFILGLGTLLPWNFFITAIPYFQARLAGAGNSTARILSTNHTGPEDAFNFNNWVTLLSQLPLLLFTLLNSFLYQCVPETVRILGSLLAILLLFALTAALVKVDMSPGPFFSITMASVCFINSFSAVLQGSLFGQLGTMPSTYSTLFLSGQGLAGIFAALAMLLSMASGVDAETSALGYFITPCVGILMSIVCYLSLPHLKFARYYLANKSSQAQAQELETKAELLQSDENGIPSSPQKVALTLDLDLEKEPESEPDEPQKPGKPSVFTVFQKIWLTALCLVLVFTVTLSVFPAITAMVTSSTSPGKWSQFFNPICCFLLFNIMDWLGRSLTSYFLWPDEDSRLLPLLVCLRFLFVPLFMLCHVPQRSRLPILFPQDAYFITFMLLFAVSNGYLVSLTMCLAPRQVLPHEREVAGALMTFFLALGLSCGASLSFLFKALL
Method: The values shown are means of duplicate assays and have been corrected for extracellular water space.
FIGS. 1B-1C depict the uptake of 10 μM ^3H-uridine determined at 22° C. in Na^+buffer using a 7.5 second uptake interval in the presence of nucleoside transport inhibitors. The uptake interval was initiated by simultaneous addition of the label and inhibitory nucleobase, nucleoside or nucleotide. […] This value was subtracted from the total uridine uptake values.
Removal of sodium from the buffer had no effect on transport in CEM/N1-7 indicating the presence of an equilibrative type transporter. […] (FIG. 1B). As expected from the permeant selectivity observed for ei activity in several cell lines [Plagemann et al., Biochim. Biophys. […] This was recently confirmed by Jarvis and colleagues [Osses et al., Biochem. J., 317:843-848 (1996)] by direct measurements of hypoxanthine in human vascular endothelial cells. […] All these features are consistent with those of an ei transporter, ie., an iENTP.

[2] = target: T2, human ei transporter in HeLa cells (Homo sapiens, UniProt Q14542); conditions: read-out: IC50 for inhibition of uridine transport via ei; cited from earlier work
T2 construct: the human ei transporter in HeLa cells where the IC50 values; host or cells: HeLa cells (endogenous)
T2 sequence (Q14542 1-456): T1 sequence (Q14542 1-456)

[3] = tested on: concentrative nucleoside transporters (cif, cit, cib); conditions: at concentrations up to 10 μM; cited from earlier work

SMILES: Cc1c(-c2ccc(-c3ccccc3F)cc2)nc2ccc(F)cc2c1C(=O)O [DUP-785, 6-fluoro-2(2′--fluoro-1, 1′-biphenyl-4-yl)-3-methyl-4-quinoline carboxylic acid sodium salt]
sensitivity of cells to the de novo uridylate synthesis inhibitor (CEM/C19 cells): sensitive

effect on uridine influx in CEM/N1-7 cells ([1]; competing nucleobase, nucleoside or nucleotide added with label, FIG. 1C): inhibited
SMILES: O=c1[nH]cnc2nc[nH]c12 [hypoxanthine]

effect on uridine transport in CEM/N1-7 cells ([1]; 0.1 μM inhibitor, 10 μM 3H-uridine, 22° C.): had no effect | effect on uridine transport in CEM/N1-7 cells ([1]; higher concentrations of inhibitor): Partial inhibition
SMILES: O=[N+]([O-])c1ccc(CSc2ncnc3c2ncn3C2OC(CO)C(O)C2O)cc1 [NBMPR, 6-[(4-nitrobenzyl)thio-9-β-D-ribofuranosylpurine]]
IC50 [2]: 6 µM | sensitivity of the concentrative nucleoside transporters [3]: insensitive

effect on uridine transport in CEM/N1-7 cells ([1]; 10 μM inhibitor): completely blocked
SMILES: OCCN(CCO)c1nc(N2CCCCC2)c2nc(N(CCO)CCO)nc(N3CCCCC3)c2n1 [DIP, bis(diethanolamino)-4,8-dipiperidinopyrimido-[5,4-d]-2,6-pyrimidine]
sensitivity of the concentrative nucleoside transporters [3]: insensitive
